In PubChem BioAssay AID242 (DTP/NCI, 2004):
Several values for one entry are separate records, joined by “and”; a condition that tells them apart may be missing. Identical values can stand only once. Inconclusive results and toxic doses are left out.

System: BDF1 mice, Lymphoma 8 ip, survival T/C
Assay: NCI In Vivo Anticancer Drug Screen. Data for tumor model Lymphoma 8 (intraperitoneal) in B6D2F1 (BDF1) mice
Conditions: higher = longer survival
Experimental: The antitumor activity of compounds was measured in mice bearing transplantable tumors. Survival or tumor size were measured and the results are expressed as the measurement made in the treated group (T) divided by the measurement made in the vehicle treated control group (C). The tumor model used in this assay is Lymphoma 8 (intraperitoneal) in B6D2F1 (BDF1) mice

[1] = endpoint: survival time, mean or median, dose: 25.0 mg/kg/injection, schedule: Q01DX010 (ip), vehicle: saline
[2] = endpoint: survival time, mean or median, dose: 50.0 mg/kg/injection, schedule: Q01DX010 (ip), vehicle: saline
[3] = endpoint: survival time, mean or median, dose: 100.0 mg/kg/injection, schedule: Q01DX010 (ip), vehicle: saline
[4] = endpoint: survival time, mean or median, dose: 5.0 mg/kg/injection, schedule: Q01DX010 (ip), vehicle: saline
[5] = endpoint: survival time, mean or median, dose: 10.0 mg/kg/injection, schedule: Q01DX010 (ip), vehicle: saline
[6] = endpoint: survival time, mean or median, dose: 20.0 mg/kg/injection, schedule: Q01DX010 (ip), vehicle: saline
[7] = endpoint: survival time, mean or median, dose: 40.0 mg/kg/injection, schedule: Q01DX010 (ip), vehicle: saline
[8] = endpoint: survival time, mean or median, dose: 25.0 mg/kg/injection, schedule: Q01DX015 (ip), vehicle: carboxymethylcellulose (CMC)
[9] = endpoint: survival time, mean or median, dose: 100.0 mg/kg/injection, schedule: Q01DX015 (ip), vehicle: carboxymethylcellulose (CMC)
[10] = endpoint: survival time, mean or median, dose: 12.5 mg/kg/injection, schedule: Q01DX010 (ip), vehicle: saline

For CC(=O)Nc1ccc2nc3ccc(NC(C)=O)cc3[n+](-c3ccccc3)c2c1, the T/C [1] was 107 % of control, the T/C [2] was 89 % of control and the T/C [3] was 92 % of control.
CCOC=Nc1c(N)ncnc1Cl was tested, and the T/C (endpoint: survival time, mean or median, dose: 62.5 mg/kg/injection, schedule: Q01DX015 (ip), vehicle: olive oil, sesame oil, peanut oil) was 107 % of control, the T/C (endpoint: survival time, mean or median, dose: 125.0 mg/kg/injection, schedule: Q01DX015 (ip), vehicle: olive oil, sesame oil, peanut oil) was 93 % of control and the T/C (endpoint: survival time, mean or median, dose: 250.0 mg/kg/injection, schedule: Q01DX015 (ip), vehicle: olive oil, sesame oil, peanut oil) was 101 % of control. The T/C (endpoint: survival time, mean or median, dose: 500.0 mg/kg/injection, schedule: Q01DX015 (ip), vehicle: olive oil, sesame oil, peanut oil) was 101 % of control.
CN(C)c1ccc(/C=C/c2ccnc3ccccc23)cc1 was tested, and the T/C [4] was 104 % of control and 118 % of control, the T/C [5] was 86 % of control and 109 % of control and the T/C [6] was 86 % of control and 104 % of control. The T/C [7] was 95 % of control and 100 % of control.
For NC(Cc1c[nH]c2ccc(N(CCCl)CCCl)cc12)C(=O)O (centres undefined), the T/C (endpoint: survival time, mean or median, dose: 0.5 mg/kg/injection, schedule: Q01DX010 (ip), vehicle: saline) was 92 % of control, the T/C (endpoint: survival time, mean or median, dose: 1.0 mg/kg/injection, schedule: Q01DX010 (ip), vehicle: saline) was 103 % of control and the T/C (endpoint: survival time, mean or median, dose: 4.0 mg/kg/injection, schedule: Q01DX010 (ip), vehicle: saline) was 103 % of control.
For CS(=O)(=O)OCCCl, the T/C (endpoint: survival time, mean or median, dose: 9.4 mg/kg/injection, schedule: Q01DX010 (ip), vehicle: saline) was 107 % of control, the T/C (endpoint: survival time, mean or median, dose: 18.8 mg/kg/injection, schedule: Q01DX010 (ip), vehicle: saline) was 91 % of control and 96 % of control and the T/C (endpoint: survival time, mean or median, dose: 37.5 mg/kg/injection, schedule: Q01DX010 (ip), vehicle: saline) was 91 % of control and 100 % of control. The T/C (endpoint: survival time, mean or median, dose: 75.0 mg/kg/injection, schedule: Q01DX010 (ip), vehicle: saline) was 91 % of control and 96 % of control.
With O=C(O)CC(NC(=O)CP(=O)(O)O)C(=O)O (centres undefined) the T/C (endpoint: median survival time, dose: 62.2 mg/kg/injection, schedule: Q04DX003 (ip), vehicle: saline) was 101 % of control, the T/C (endpoint: median survival time, dose: 104.0 mg/kg/injection, schedule: Q04DX003 (ip), vehicle: saline) was 114 % of control and the T/C (endpoint: median survival time, dose: 173.0 mg/kg/injection, schedule: Q04DX003 (ip), vehicle: saline) was 103 % of control. The T/C (endpoint: median survival time, dose: 288.0 mg/kg/injection, schedule: Q04DX003 (ip), vehicle: saline) was 108 % of control and the T/C (endpoint: median survival time, dose: 480.0 mg/kg/injection, schedule: Q04DX003 (ip), vehicle: saline) was 111 % of control.
For CC(C)CNS(=O)(=O)c1ncnc2nc[nH]c12, the T/C (endpoint: survival time, mean or median, dose: 18.8 mg/kg/injection, schedule: Q01DX015 (ip), vehicle: carboxymethylcellulose (CMC)) was 114 % of control, the T/C (endpoint: survival time, mean or median, dose: 37.5 mg/kg/injection, schedule: Q01DX015 (ip), vehicle: carboxymethylcellulose (CMC)) was 99 % of control and the T/C (endpoint: survival time, mean or median, dose: 75.0 mg/kg/injection, schedule: Q01DX015 (ip), vehicle: carboxymethylcellulose (CMC)) was 96 % of control.
In the case of Nc1nc(F)nc2c1ncn2C1OC(CO)C(O)C1O (centres undefined), the T/C (endpoint: survival time, mean or median, dose: 0.75 mg/kg/injection, schedule: Q01DX015 (ip), vehicle: saline) is reported as 88 % of control.
For O=NN(CCCl)C(=O)NCCCl, the T/C (endpoint: survival time, mean or median, dose: 2.64 mg/kg/injection, schedule: Q01DX015 (ip), vehicle: saline) was 90 % of control.
C=CCSc1nc(N)nc2nc[nH]c12 was tested, and the T/C (endpoint: survival time, mean or median, dose: 16.0 mg/kg/injection, schedule: Q01DX015 (ip), vehicle: other) was 101 % of control, the T/C (endpoint: survival time, mean or median, dose: 31.0 mg/kg/injection, schedule: Q01DX015 (ip), vehicle: other) was 100 % of control and the T/C (endpoint: survival time, mean or median, dose: 62.5 mg/kg/injection, schedule: Q01DX015 (ip), vehicle: other) was 90 % of control.
With CN(C)C(=S)N=Nc1c(O)[nH]c2ccccc12 the T/C [8] was 124 % of control and the T/C [9] was 104 % of control.
In the case of NC(=O)c1cn(C2OC(CO)C(O)C2O)c2ncnc(N)c12 (centres undefined), the T/C (endpoint: survival time, mean or median, dose: 0.5 mg/kg/injection, schedule: Q01DX015 (ip), vehicle: carboxymethylcellulose (CMC)) is reported as 106 % of control, the T/C (endpoint: survival time, mean or median, dose: 1.0 mg/kg/injection, schedule: Q01DX015 (ip), vehicle: carboxymethylcellulose (CMC)) is reported as 116 % of control and the T/C (endpoint: survival time, mean or median, dose: 2.0 mg/kg/injection, schedule: Q01DX015 (ip), vehicle: carboxymethylcellulose (CMC)) is reported as 94 % of control.
For C[n+]1c2ccccc2nc2c(N)cc(N)cc21, the T/C (endpoint: survival time, mean or median, dose: 8.0 mg/kg/injection, schedule: Q01DX010 (ip), vehicle: saline) was 121 % of control, the T/C (endpoint: survival time, mean or median, dose: 12.0 mg/kg/injection, schedule: Q01DX010 (ip), vehicle: saline) was 117 % of control and the T/C (endpoint: survival time, mean or median, dose: 18.0 mg/kg/injection, schedule: Q01DX010 (ip), vehicle: saline) was 107 % of control.
CS(=O)(=O)OCCC(=O)N1CCN(C(=O)CCOS(C)(=O)=O)CC1 was tested, and the T/C [10] was 116 % of control, the T/C [1] was 123 % of control and the T/C [2] was 156 % of control. For the same compound, the T/C [3] was 203 % of control.
For OCC1OC(n2cnc3c(Cl)ncnc32)C(O)C1O (centres undefined), the T/C (endpoint: survival time, mean or median, dose: 62.5 mg/kg/injection, schedule: Q01DX010 (ip), vehicle: saline) was 90 % of control and 105 % of control, the T/C (endpoint: survival time, mean or median, dose: 125.0 mg/kg/injection, schedule: Q01DX010 (ip), vehicle: saline) was 95 % of control and 100 % of control and 105 % of control and the T/C (endpoint: survival time, mean or median, dose: 250.0 mg/kg/injection, schedule: Q01DX010 (ip), vehicle: saline) was 90 % of control and 95 % of control and 105 % of control. For the same compound, the T/C (endpoint: survival time, mean or median, dose: 500.0 mg/kg/injection, schedule: Q01DX010 (ip), vehicle: saline) was 97 % of control and 104 % of control and 115 % of control.
With C[C@@H]1C[C@@H]([C@H](O)CC2CC(=O)NC(=O)C2)C(=O)[C@@H](C)C1 the T/C [4] was 115 % of control, the T/C [5] was 105 % of control and the T/C [6] was 115 % of control. The T/C [7] was 120 % of control.
With N=C(N)SCc1c2ccccc2c(CSC(=N)N)c2ccccc12 the T/C (endpoint: survival time, mean or median, dose: 2.5 mg/kg/injection, schedule: Q01DX010 (ip), vehicle: saline) was 106 % of control and 121 % of control, the T/C [4] was 113 % of control and the T/C [6] was 113 % of control and 114 % of control.
For CSc1ncnc2nc[nH]c12, the T/C [1] was 103 % of control, the T/C [2] was 103 % of control and the T/C [3] was 100 % of control.
For Oc1cc(CN(CCCl)CCCl)c(O)cc1CN(CCCl)CCCl, the T/C (endpoint: survival time, mean or median, dose: 0.63 mg/kg/injection, schedule: Q01DX010 (ip), vehicle: saline) was 104 % of control and 107 % of control, the T/C (endpoint: survival time, mean or median, dose: 1.25 mg/kg/injection, schedule: Q01DX010 (ip), vehicle: saline) was 104 % of control and the T/C [4] was 103 % of control and 120 % of control.
With COc1ccc(CSc2ncnc3nc[nH]c23)cc1 the T/C (endpoint: survival time, mean or median, dose: 62.5 mg/kg/injection, schedule: Q01DX015 (ip), vehicle: carboxymethylcellulose (CMC)) was 95 % of control, the T/C (endpoint: survival time, mean or median, dose: 125.0 mg/kg/injection, schedule: Q01DX015 (ip), vehicle: carboxymethylcellulose (CMC)) was 92 % of control and the T/C (endpoint: survival time, mean or median, dose: 250.0 mg/kg/injection, schedule: Q01DX015 (ip), vehicle: carboxymethylcellulose (CMC)) was 87 % of control.
In the case of CS(=O)(=O)OCCCCOS(C)(=O)=O, the T/C (endpoint: survival time, mean or median, dose: 6.25 mg/kg/injection, schedule: Q01DX010 (ip), vehicle: saline) is reported as 100 % of control, the T/C [10] is reported as 105 % of control and the T/C [1] is reported as 100 % of control. The T/C [2] was 105 % of control.
For CN(N=O)C(N)=O, the T/C [4] was 114 % of control and the T/C [6] was 110 % of control.
For COc1cc(-c2ccc(Nc3ccccc3C(=O)O)c(OC)c2)ccc1Nc1ccccc1C(=O)O, the T/C [8] was 101 % of control, the T/C (endpoint: survival time, mean or median, dose: 50.0 mg/kg/injection, schedule: Q01DX015 (ip), vehicle: carboxymethylcellulose (CMC)) was 89 % of control and the T/C [9] was 96 % of control. For the same compound, the T/C (endpoint: survival time, mean or median, dose: 200.0 mg/kg/injection, schedule: Q01DX015 (ip), vehicle: carboxymethylcellulose (CMC)) was 90 % of control.
In the case of Nc1ccc(OC(=O)Oc2ccc(N)cc2)cc1, the T/C (endpoint: survival time, mean or median, dose: 25.0 mg/kg/injection, schedule: Q01DX015 (ip), vehicle: saline) is reported as 105 % of control, the T/C (endpoint: survival time, mean or median, dose: 50.0 mg/kg/injection, schedule: Q01DX015 (ip), vehicle: saline) is reported as 91 % of control and the T/C (endpoint: survival time, mean or median, dose: 100.0 mg/kg/injection, schedule: Q01DX015 (ip), vehicle: saline) is reported as 111 % of control. The T/C (endpoint: survival time, mean or median, dose: 200.0 mg/kg/injection, schedule: Q01DX015 (ip), vehicle: saline) was 106 % of control.
Cc1c(O)ccc(=O)n1O was tested, and the T/C (endpoint: survival time, mean or median, dose: 49.0 mg/kg/injection, schedule: Q01DX015 (ip), vehicle: other) was 100 % of control, the T/C (endpoint: survival time, mean or median, dose: 73.0 mg/kg/injection, schedule: Q01DX015 (ip), vehicle: other) was 97 % of control and the T/C (endpoint: survival time, mean or median, dose: 110.0 mg/kg/injection, schedule: Q01DX015 (ip), vehicle: other) was 105 % of control.
For Clc1ncnc2nc[nH]c12, the T/C (endpoint: survival time, mean or median, dose: 7.5 mg/kg/injection, schedule: Q01DX010 (ip), vehicle: saline) was 100 % of control, the T/C (endpoint: survival time, mean or median, dose: 15.0 mg/kg/injection, schedule: Q01DX010 (ip), vehicle: saline) was 100 % of control and the T/C (endpoint: survival time, mean or median, dose: 30.0 mg/kg/injection, schedule: Q01DX010 (ip), vehicle: saline) was 110 % of control. The T/C (endpoint: survival time, mean or median, dose: 60.0 mg/kg/injection, schedule: Q01DX010 (ip), vehicle: saline) was 100 % of control.
